Results: PubChem BioAssay (NCI)
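48-hour exposure; five concentrations; linearly interpolated endpoints. The concentration for 50% growth inhibition is given as GI50. TGI: total growth inhibition.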

Legend:
Experiment in all cases: growth of human tumour cells (NCI), 48 h
[1] = tested on: OVCAR-4 ovarian
[2] = tested on: RXF-631 renal
[3] = tested on: UO-31 renal
[4] = tested on: HOP-18 NSCLC
[5] = tested on: CCRF-CEM leukemia
[6] = tested on: M19-MEL melanoma
[7] = tested on: SNB-19 CNS
[8] = tested on: SW-620 colon
[9] = tested on: DMS 114 small cell lung
[10] = tested on: XF 498 CNS
[11] = tested on: SK-OV-3 ovarian
[12] = tested on: NCI-H522 lung
[13] = tested on: MALME-3M melanoma
[14] = tested on: SK-MEL-28 melanoma
[15] = tested on: A549 NSCLC
[16] = tested on: SF-268 CNS
[17] = tested on: HT29 colon
[18] = tested on: CAKI-1 renal
[19] = tested on: NCI-H226 lung
[20] = tested on: SK-MEL-2 melanoma
[21] = tested on: SF-539 CNS
[22] = tested on: SN12C renal
[23] = tested on: KM12 colon
[24] = tested on: MOLT-4 leukemia
[25] = tested on: SK-MEL-5 melanoma
[26] = tested on: HL-60(TB) leukemia
[27] = tested on: KM20L2 colon
[28] = tested on: HOP-62 NSCLC
[29] = tested on: SR leukemia
[30] = tested on: HCT-116 colon
[31] = tested on: OVCAR-5 ovarian
[32] = tested on: K-562 leukemia
[33] = tested on: UACC-62 melanoma
[34] = tested on: HCC-2998 colon
[35] = tested on: M14 melanoma
[36] = tested on: OVCAR-8 ovarian
[37] = tested on: EKVX NSCLC
[38] = tested on: HCT-15 colon
[39] = tested on: DLD-1 colon
[40] = tested on: IGROV1 ovarian
[41] = tested on: SNB-75 CNS
[42] = tested on: LOX IMVI melanoma
[43] = tested on: LXFL 529 NSCLC
[44] = tested on: NCI-H460 lung
[45] = tested on: UACC-257 melanoma
[46] = tested on: SNB-78 CNS
[47] = tested on: NCI-H23 lung
[48] = tested on: COLO 205 colon
[49] = tested on: TK-10 renal
[50] = tested on: U251 CNS
[51] = tested on: DMS 273 small cell lung
[52] = tested on: 786-0 renal
[53] = tested on: OVCAR-3 ovarian
[54] = tested on: RXF 393 renal
[55] = tested on: SF-295 CNS
[56] = tested on: HOP-92 NSCLC
[57] = tested on: A498 renal
[58] = tested on: ACHN renal
[59] = tested on: RPMI-8226 leukemia

Compound: CC[C@@]1(O)C(=O)OCc2c1cc1n(c2=O)Cc2cc3c(NC(C)=O)c(O)ccc3nc2-1
- GI50 [1]: 14.6 µM
- TGI [1]: 44.7 µM
- GI50 [2]: 4.47 µM
- TGI [2]: > 100 µM
- GI50 [3]: 1.76 µM
- TGI [3]: 16.2 µM
- GI50 [4]: 7.57 µM
- TGI [4]: > 100 µM
- GI50 [5]: 0.0542 µM
- TGI [5]: 1.07 µM
- GI50 [6]: 4.93 µM
- TGI [6]: 43.7 µM
- GI50 [7]: 0.917 µM
- TGI [7]: > 56.6 µM
- GI50 [8]: 1.94 µM
- TGI [8]: > 100 µM
- GI50 [9]: 0.353 µM
- TGI [9]: 7.58 µM
- GI50 [10]: 5.39 µM
- TGI [10]: 51 µM
- GI50 [11]: 1.4 µM
- TGI [11]: 45.7 µM
- GI50 [12]: 0.565 µM
- TGI [12]: 14.5 µM
- GI50 [13]: 4.83 µM
- TGI [13]: 65.5 µM
- GI50 [14]: > 25.9 µM
- TGI [14]: > 100 µM
- GI50 [15]: 1.68 µM
- TGI [15]: > 100 µM
- GI50 [16]: 0.417 µM
- TGI [16]: > 52.3 µM
- GI50 [17]: 13.7 µM
- TGI [17]: > 77.5 µM
- GI50 [18]: 0.468 µM
- TGI [18]: 13.7 µM
- GI50 [19]: 2.98 µM
- TGI [19]: > 20.3 µM
- GI50 [20]: 17.8 µM
- TGI [20]: 53.5 µM
- GI50 [21]: 0.388 µM
- TGI [21]: 1.96 µM
- GI50 [22]: 0.456 µM
- TGI [22]: > 20.8 µM
- GI50 [23]: 14.4 µM
- TGI [23]: > 61.3 µM
- GI50 [24]: 0.133 µM
- TGI [24]: 0.968 µM
- GI50 [25]: 2.08 µM
- TGI [25]: 8.97 µM
- GI50 [26]: 0.416 µM
- TGI [26]: 5.05 µM
- GI50 [27]: 16.3 µM
- TGI [27]: > 100 µM
- GI50 [28]: 0.214 µM
- TGI [28]: 0.631 µM
- GI50 [29]: < 0.0148 µM
- TGI [29]: 0.108 µM
- GI50 [30]: 2.41 µM
- TGI [30]: 24.6 µM
- GI50 [31]: 4.19 µM
- TGI [31]: > 100 µM
- GI50 [32]: 3.47 µM
- TGI [32]: > 70.2 µM
- GI50 [33]: 0.272 µM
- TGI [33]: 2.71 µM
- GI50 [34]: 8.21 µM
- TGI [34]: 47.1 µM
- GI50 [35]: 1.04 µM
- TGI [35]: 15.8 µM
- GI50 [36]: 1.54 µM
- TGI [36]: > 47.7 µM
- GI50 [37]: 81.4 µM
- TGI [37]: > 100 µM
- GI50 [38]: 18 µM
- TGI [38]: > 100 µM
- GI50 [39]: 43.3 µM
- TGI [39]: > 100 µM
- GI50 [40]: 6.27 µM
- TGI [40]: > 88.5 µM
- GI50 [41]: 0.744 µM
- TGI [41]: 7.31 µM
- GI50 [42]: 0.497 µM
- TGI [42]: 6.31 µM
- GI50 [43]: 12.5 µM
- TGI [43]: > 100 µM
- GI50 [44]: 0.288 µM
- TGI [44]: 4.24 µM
- GI50 [45]: 10.8 µM
- TGI [45]: > 86.6 µM
- GI50 [46]: 28.9 µM
- TGI [46]: > 100 µM
- GI50 [47]: 0.762 µM
- TGI [47]: 9.15 µM
- GI50 [48]: 17.6 µM
- TGI [48]: > 100 µM
- GI50 [49]: > 71.4 µM
- TGI [49]: > 100 µM
- GI50 [50]: 0.252 µM
- TGI [50]: 4.46 µM
- GI50 [51]: 0.296 µM
- TGI [51]: 8.33 µM
- GI50 [52]: 0.373 µM
- TGI [52]: 2.17 µM
- GI50 [53]: 9.7 µM
- TGI [53]: 41.1 µM
- GI50 [54]: 2.34 µM
- TGI [54]: 20.2 µM
- GI50 [55]: 0.721 µM
- TGI [55]: > 32.1 µM
- GI50 [56]: 7.76 µM
- TGI [56]: 51.9 µM
- GI50 [57]: 5.9 µM
- TGI [57]: 22.5 µM
- GI50 [58]: 0.389 µM
- TGI [58]: 2.85 µM
- GI50 [59]: 4.58 µM
- TGI [59]: 56.8 µM
